Reference: patent US20230381275A1, “MUSCULAR FUNCTION IMPROVING AGENT FOR SKELETAL MUSCLE OF WHICH FUNCTION IS DEGRADED DUE TO AGING” (OSAKA UNIVERSITY, priority 2020, published 2023)

Assays:
[1] = system: aging-accelerated model mice (SAMP10); test: Number of collisions during treadmill running, weekly test (Example 1); assay type: in vivo; conditions: after 30 weeks of age (tested to 35 weeks), SV peptide 20 ng/ml injected into bilateral lower limb muscles after treadmill training, vs PBS control group, FIG. 1
Procedure: In this example, a peptide consisting of the amino acid sequence of SVVYGLR (SEQ ID No.: 1) (SV peptide) was administered to aging-accelerated model mice, and their effects on restoring muscle function were confirmed.
SV peptide was synthesized by the Fmoc method using a multi-species solid-phase automated peptide synthesizer (PSSM-8; Shimadzu Corp.) SV peptide was added to PBS and adjusted to 20 ng/ml to prepare an injection formulation.
Aging-accelerated model mice (SAMP10 21 weeks old) were used to perform training on a treadmill (MK-680; Muromachi Kikai Co., Ltd.) and subsequent SV peptide administration according to the schedule in the following table. […]
Once a week, the mice were tested on a treadmill to measure the number of collisions. After SV peptide injection, the mice have trained on the treadmill again (18 m/min×90 min), and the number of times the mice collided with the treadmill wall due to being unable to run at a speed equal to or faster than that of the belt was measured during treadmill training. […] In the control group, after training on the treadmill in the same manner as the experimental group, PBS was injected into the bilateral lower limb muscles instead of SV peptide, and the number of collisions was measured once a week.

[2] = system: aging-accelerated model mice (SAMP10); test: Number of collisions on treadmill retest 12, 24 or 72 hours after local injection (Example 2); assay type: in vivo; conditions: SAMP10 36 weeks old, SV peptide total 40 ng into bilateral lower limb muscles, vs PBS control, FIG. 2
Procedure: In this example, SV peptide was administered to aging-accelerated model mice, and the recovery effect of muscle function after a certain period of time by the administration was confirmed.
Treadmill running was performed using aging-accelerated model mice (SAMP10 36 weeks old) under the same conditions as the first basic training of 35-week-old mice in Example 1, and SV peptide (total 40 ng) was injected into the bilateral lower limb muscles immediately after treadmill running (experimental group).
SV peptide was administered at the same site and dose as in the 35-week-old mice of Example 1. The number of collisions was evaluated by retesting treadmill running (18 m/min×90 min) at 12, 24, or 72 hours after local injection. In the control group, after treadmill running as in the experimental group, PBS was injected into the bilateral leg muscles instead of SV peptide, and the number of collisions on the treadmill was measured 12, 24, or 72 hours after the injection.

[3] = system: aging-accelerated model mice; test: Mean cross-sectional area of muscle fibers, HE staining, 51-week-old mice (Example 5); assay type: in vivo
Procedure: In this example, the training schedule and SV peptide administration concentration were changed from Example 4, and exercise evaluation (endurance evaluation) was conducted in aging-accelerated model mice when SV peptide was continuously administered. In addition, the cross-sectional area of muscle fibers (gastrocnemius (type I, type IIa, type IIb), extensor digitorum longus, and tibialis anterior muscles) were evaluated in mice that continued training and SV peptide administration until 51 weeks of age.
Aging-accelerated model mice were trained on a treadmill (MK-680; Muromachi Kikai Co., Ltd.) (18 m/min×90 min) and subsequent SV peptide administration was performed according to the schedule in the following table. 30 weeks of age and thereafter, training was performed continuously from Monday to Friday of each week. SV peptide was added to PBS to adjust to a concentration of 1 μg/ml for an injection formulation and localized to the bilateral leg muscles of each mouse anesthetized by inhalation with sevoflurane immediately after training on Tuesday and Friday (SV group; twice weekly administration). Exercise evaluations were performed every other Friday.
The gastrocnemius, extensor digitorum longus, and tibialis anterior muscles of the lower limbs were removed from 51-week-old aging-accelerated model mice, and after sections were prepared according to the standard method, the cross-sectional area of muscle fibers was measured by HE staining. […] The mean cross-sectional area of muscle fibers was also measured for each type of gastrocnemius muscle fiber (type I, type IIa, and type IIb). The mean cross-sectional area of muscle fibers was the mean of more than 50 fibers of each muscle fiber type.

[4] = system: aging-accelerated model mice; test: Endurance evaluation test on treadmill (Example 7); assay type: in vivo
Procedure: In this example, the number of SV peptide doses and dosage in Example 4 were changed as shown in the following table, and exercise evaluation (endurance evaluation) was performed when SV peptide was continuously administered to aging-accelerated model mice. The conditions other than the number of SV peptide doses and dosage were the same as in Example 4.
Specifically, SV peptide was added to PBS to adjust to a concentration of 20 μg/ml for the injectable formulation, and localized to the bilateral lower limb muscles of each mouse anesthetized by inhalation with sevoflurane immediately after training once every 4 weeks (Friday) (SV group; once every 4 weeks).
The results of the endurance evaluation test are shown in FIG. 14 with a graph showing the mean running distance for the SV group (n=6) and the PBS group (n=6). In addition, graphs showing the difference between the mean running distance on the reference date (30 weeks of age) and the mean running distance in each test are shown in FIGS. 15 and 16. […] In FIG. 16, the sum of the absolute difference in mean running distance relative to the reference date in the SV group and the absolute difference in mean running distance relative to the reference date in the PBS group is shown as the SV treatment effect.
The change over time in the mean maximum speed in each group is shown in FIG. 17, and graphs showing the difference between the mean maximum speed on the reference date and the mean maximum speed on each test date are shown in FIGS. 18 and 19. […] In FIG. 19, the sum of the absolute difference in mean running distance relative to the reference date in the SV group and the absolute difference in mean running distance relative to the reference date in the PBS group is shown as the SV treatment effect. The treatment effect of more than 0.15 m/sec was confirmed at 34 and 39-41 weeks.

fibroblasts = conditions: Non-Patent Documents 5, 6, Patent Documents 1-4; cited from earlier work
[5] = system: animal models of injured skeletal muscle; conditions: local administration, Non-Patent Document 7, Patent Document 5; cited from earlier work
[6] = SV group vs PBS group, mean of more than 50 fibers, FIGS. 10 and 11
[7] = SV peptide 1 μg/ml plus training from 28 to 51 weeks, vs PBS group, FIG. 9

## SVVYGLR [SV peptide, peptide consisting of 7 amino acids (SVVYGLR]
[1]
  number of collisions during treadmill running: significant suppression of the increase in the number of collisions compared to the control group
[2]; 12 hours after local injection
  number of collisions during treadmill running: significantly reduced
[2]; 24 hours after local injection
  number of collisions during treadmill running: significantly reduced
[2]; 72 hours after local injection
  number of collisions during treadmill running: significantly reduced
[3]; [6]
  cross-sectional area of type I gastrocnemius muscle fibers: increased compared to the PBS group
  cross-sectional area of type IIa gastrocnemius muscle fibers: increased compared to the PBS group
  cross-sectional area of type IIb gastrocnemius muscle fibers: increased compared to the PBS group
[3]; [7]
  mean cross-sectional area of muscle fibers, extensor digitorum longus muscle: significantly larger than that in the PBS group
  mean cross-sectional area of muscle fibers, gastrocnemius muscle: significantly larger than that in the PBS group
  mean cross-sectional area of muscle fibers, tibialis anterior muscle: significantly larger than that in the PBS group
[4]; FIG. 19, at 34 and 39-41 weeks, SV peptide 20 μg/ml once every 4 weeks plus training
  SV treatment effect (sum of absolute differences relative to the reference date of SV group and PBS group): more than 0.15 m/sec
[4]; SV group, 20 μg/ml once every 4 weeks plus training, at 41 weeks of age vs 30 weeks of age
  mean maximum speed: same mean maximum speed at 41 weeks of age as at 30 weeks of age
[4]; SV group, 20 μg/ml once every 4 weeks plus training, compared to the PBS group
  decrease in the mean maximum speed during the test period: able to suppress the decrease in the mean maximum speed
[4]; SV group, 20 μg/ml once every 4 weeks plus training, test from 31 to 36 weeks of age, FIG. 17
  mean speed (mean maximum speed): continuous increase
[4]; SV group, SV peptide 20 μg/ml once every 4 weeks plus training, at 41 weeks of age vs 30 weeks of age
  mean running distance: exceeded that of 30 weeks of age
[4]; SV group, SV peptide 20 μg/ml once every 4 weeks plus training, from 31 to 36 weeks of age, FIGS. 14-16
  mean running distance: increased significantly
fibroblasts
  differentiation of fibroblasts to myofibroblasts: promoting
[5]
  diameter of regenerated muscle fibers: significantly higher
  muscle tissue regeneration: promotes muscle tissue regeneration
